Results from patent US10836770B2, “Imidazopyridazine compounds useful as modulators of IL-12, IL-23 and/or INF alpha responses” (priority 2016, dated 2020).
pEC50, pIC50: −log10 of the molar value. Like-named read-outs stand apart in the source and are kept apart here.

Experiments:
[1] = system: IL-23-stimulated Kit225 T cells with STAT-dependent luciferase reporter; experiment: Kit225 T cell assay, IL-23 stimulated STAT-dependent luciferase reporter; type: cell-based, human; details: for IC50: Homo sapiens, KIT225, read-out: IL-23 Kit225 Reporter, LE (IC50, uM)
Experimental: (§1) Kit225 T cells with a stably-integrated STAT-dependent luciferase reporter were plated in RPMI (GIBCO) containing 10% heat-inactivated FBS (GIBCO) and 100 U/mL PenStrep (GIBCO). The cells were then stimulated with either 20 ng/mL human recombinant IL-23 or 200 U/mL human recombinant IFNα (PBL InterferonSource) for 5-6 hours. Luciferase expression was measured using the STEADY-GLO® Luciferase Assay System (PROMEGA®) according to the manufacturer's instructions.

[2] = system: IFNα-stimulated Kit225 T cells with STAT-dependent luciferase reporter; experiment: Kit225 T cell assay, IFNα stimulated STAT-dependent luciferase reporter; type: cell-based, human; details: for IC50: Homo sapiens, KIT225, read-out: IFNa Kit225 Reporter, LE (IC50, uM)
Experimental: as §1

[3] = biological target: T1, recombinantly expressed His-tagged protein corresponding to amino acids 575-869 of human Tyk2 (Homo sapiens, UniProt P29597); experiment: Probe displacement assay (scintillation proximity, radiolabeled probe); type: binding
T1 construct: made in house
Experimental: The probe displacement assay is conducted as follows: In a […], test compounds along with recombinantly expressed His-tagged protein corresponding to amino acids 575-869 of human Tyk2 (sequence shown below) at 2.5 nM, 40 nM ((R)—N-(1-(3-(8-methyl-5-(methylamino)-8H-imidazo[4,5-d]thiazolo[5,4-b]pyridin-2-yl)phenyl)ethyl)-2-([^3H]methylsulfonyl)benzamide) (preparation described below) and 80 μg/mL Copper His-Tag scintillation proximity assay beads (Perkin Elmer, Catalog #RPNQ0095) in 50 mM HEPES, pH 7.5, containing 100 μg/mL bovine serum albumin and 5% DMSO were incubated for 30 minutes at room temperature. […] The IC50 value is defined as the concentration of test compound required to inhibit radiolabeled probe binding by 50%.
Protein Sequence of recombinant Hig-tagged Tyk2 (575-869):
The preparation of radiolabeled probe, (R)—N-(1-(3-(8-methyl-5-(methylamino)-8H-imidazo[4,5-d]thiazolo[5,4-b]pyridin-2-yl)phenyl)ethyl)-2-([^3H]methylsulfonyl)benzamide, was performed as described below: […]

T1 sequence (P29597 with tags, fused parts or gaps): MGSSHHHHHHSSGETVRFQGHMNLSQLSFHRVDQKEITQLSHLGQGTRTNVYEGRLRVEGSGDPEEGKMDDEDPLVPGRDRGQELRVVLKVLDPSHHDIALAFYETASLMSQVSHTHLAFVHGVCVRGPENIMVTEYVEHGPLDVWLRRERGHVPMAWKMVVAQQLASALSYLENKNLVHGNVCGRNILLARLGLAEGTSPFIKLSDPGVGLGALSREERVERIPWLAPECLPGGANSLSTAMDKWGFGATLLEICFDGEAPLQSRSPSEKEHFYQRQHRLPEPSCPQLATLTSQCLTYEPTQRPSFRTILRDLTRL

## CNC(=O)c1sccc1Nc1cc(NC)c2ncc(C(=O)NC3CC3)n2n1 [Example 43, N-cyclopropyl-8-(methylamino)-6-((2-(methylcarbamoyl)thiophen-3-yl)amino)imidazo[1,2-b]pyridazine-3-carboxamide]
[1]
  IC50: 16.1 µM
[2]
  IC50: 12.5 µM
[3]
  pEC50: 6.31

## CNc1cc(Nc2cc(C(=O)Nc3ccccc3)nn2C)nn2c(C(=O)NC3CC3)cnc12 [Example 40]
[1]
  IC50: 12.5 µM
[2]
  IC50: 12.5 µM
[3]
  pEC50: 7.10

## CCNC(=O)c1nscc1Nc1cc(NC)c2ncc(C(=O)NCCOC)n2n1 [Example 72]
[1]
  IC50: 0.14 µM
[2]
  IC50: 0.07 µM
[3]
  pEC50: 8.24

## CNC(=O)c1occc1Nc1cc(NC)c2ncc(C(=O)NC3CC3)n2n1 [Example 51, N-cyclopropyl-8-(methylamino)-6-((2-(methylcarbamoyl)furan-3-yl)amino)imidazo[1,2-b]pyridazine-3-carboxamide]
[1]
  IC50: 0.05 µM
[2]
  IC50: 0.04 µM
[3]
  pEC50: 8.42

## CNC(=O)c1nscc1Nc1cc(NC)c2ncc(C(=O)NC3CC3)n2n1 [Example 59, 4-((3-(cyclopropylcarbamoyl)-8-(methylamino)imidazo[1,2-b]pyridazin-6-yl)amino)-N-methylisothiazole-3-carboxamide]
[1]
  IC50: 0.01 µM
[2]
  IC50: 0.03 µM
[3]
  pEC50: 8.71

## CNc1cc(Nc2cc(C(=O)Nc3ccccc3)n(C)n2)nn2c(C(=O)NC3CC3)cnc12 [Example 42]
[1]
  IC50: 12.5 µM
[2]
  IC50: 12.5 µM
[3]
  pEC50: 6.44

## CNc1cc(Nc2cn(C)nc2C(=O)Nc2ccc(OC)cc2)nn2c(C(=O)NC3CC3)cnc12 [Example 12]
[1]
  IC50: 0.12 µM
[2]
  IC50: 0.11 µM
[3]
  pEC50: 8.12

## CNc1cc(Nc2cn(C)nc2C(=O)NC2CC2)nn2c(C(=O)NC3CC3)cnc12 [Example 16]
[1]
  IC50: 0.25 µM
[2]
  IC50: 0.14 µM
[3]
  pEC50: 8.35

## CNC(=O)c1cc(Nc2cc(NC)c3ncc(C(=O)NC4CC4)n3n2)nn1C [Example 41, N-cyclopropyl-6-((1-methyl-5-(methylcarbamoyl)-1H-pyrazol-3-yl)amino)-8-(methylamino)imidazo[1,2-b]pyridazine-3-carboxamide]
[1]
  IC50: 12.5 µM
[2]
  IC50: 12.5 µM
[3]
  pEC50: 7.52

## CNc1cc(Nc2csnc2C(=O)N[C@@H]2C[C@@H]2F)nn2c(C(=O)NC3CC3)cnc12 [Example 64]
[1]
  IC50: 0.08 µM
[2]
  IC50: 0.06 µM
[3]
  pEC50: 8.70

## [2H]C([2H])([2H])NC(=O)c1nscc1Nc1cc(NC)c2ncc(C(=O)NCc3nccs3)n2n1 [Example 70]
[1]
  IC50: 0.42 µM
[2]
  IC50: 0.11 µM
[3]
  pEC50: 7.70

## CCNC(=O)c1occc1Nc1cc(NC)c2ncc(C(=O)NC3CC3)n2n1 [Example 52]
[1]
  IC50: 0.1 µM
[2]
  IC50: 0.06 µM
[3]
  pEC50: 8.17

## CNc1cc(Nc2cn(C)nc2C(=O)Nc2ccccc2)nn2c(C(=O)NC3CC3)cnc12 [Example 2]
[1]
  IC50: 0.94 µM
[2]
  IC50: 0.68 µM
[3]
  pEC50: 8.52

## CCNC(=O)c1nscc1Nc1cc(NC)c2ncc(C(=O)NCc3nccs3)n2n1 [Example 75]
[1]
  IC50: 3.31 µM
[2]
  IC50: 2.29 µM
[3]
  pEC50: 8.00

## CNC(=O)c1ncsc1Nc1cc(NC)c2ncc(C(=O)NC3CC3)n2n1 [Example 78, 5-((3-(cyclopropylcarbamoyl)-8-(methylamino)imidazo[1,2-b]pyridazin-6-yl)amino)-N-methylthiazole-4-carboxamide]
[1]
  IC50: 0.12 µM
[2]
  IC50: 0.26 µM
[3]
  pEC50: 8.00

## CNc1cc(Nc2cnn(C)c2C(=O)O)nn2c(C(=O)NC3CC3)cnc12 [Example 37, 4-((3-(cyclopropylcarbamoyl)-8-(methylamino)imidazo[1,2-b]pyridazin-6-yl)amino)-1-methyl-1H-pyrazole-5-carboxylic acid]
[1]
  IC50: 2.34 µM
[2]
  IC50: 1.39 µM
[3]
  pEC50: 7.30

## CNc1cc(Nc2cn(C)nc2C(=O)Nc2ccc(F)cc2)nn2c(C(=O)NC3CC3)cnc12 [Example 23]
[1]
  IC50: 0.43 µM
[2]
  IC50: 0.81 µM
[3]
  pEC50: 7.70

## CCNC(=O)c1nscc1Nc1cc(NC)c2ncc(C(=O)NC(CO)CO)n2n1 [Example 74]
[1]
  IC50: 0.07 µM
[2]
  IC50: 0.02 µM
[3]
  pEC50: 8.14

## CNc1cc(Nc2ccoc2C(=O)Nc2ccc(F)cc2)nn2c(C(=O)NC3CC3)cnc12 [Example 56]
[1]
  IC50: 0.03 µM
[2]
  IC50: 0.02 µM
[3]
  pEC50: 8.68

## CNc1cc(Nc2ccoc2C(=O)Nc2ccc(OC)nc2)nn2c(C(=O)NC3CC3)cnc12 [Example 55]
[1]
  IC50: 0.06 µM
[2]
  IC50: 0.03 µM
[3]
  pEC50: 8.54

## CNc1cc(Nc2cn(C)nc2C(=O)Nc2ccncc2)nn2c(C(=O)NC3CC3)cnc12 [Example 6]
[1]
  IC50: 0.07 µM
[2]
  IC50: 0.19 µM
[3]
  pEC50: 8.42

## CNC(=O)c1nc(C)sc1Nc1cc(NC)c2ncc(C(=O)NC3CC3)n2n1 [Example 84, 5-((3-(cyclopropylcarbamoyl)-8-(methylamino)imidazo[1,2-b]pyridazin-6-yl)amino)-N,2-dimethylthiazole-4-carboxamide]
[1]
  IC50: 0.11 µM
[2]
  IC50: 0.18 µM
[3]
  pEC50: 8.35

## CNc1cc(Nc2cn(C)nc2C(=O)Nc2cccc(F)c2)nn2c(C(=O)NC3CC3)cnc12 [Example 21]
[1]
  IC50: 0.24 µM
[2]
  IC50: 0.5 µM
[3]
  pEC50: 7.30

## CNc1cc(Nc2cn(C)nc2C(=O)Nc2ccc3c(c2)OCO3)nn2c(C(=O)NC3CC3)cnc12 [Example 13]
[1]
  IC50: 0.33 µM
[2]
  IC50: 0.21 µM
[3]
  pEC50: 8.11

## CNc1cc(Nc2scnc2C(=O)NC(C)C)nn2c(C(=O)NC3CC3)cnc12 [Example 81]
[1]
  IC50: 0.3 µM
[2]
  IC50: 0.31 µM
[3]
  pEC50: 8.49

## CCCNC(=O)c1ncsc1Nc1cc(NC)c2ncc(C(=O)NC3CC3)n2n1 [Example 80]
[1]
  IC50: 0.14 µM
[2]
  IC50: 0.13 µM
[3]
  pEC50: 7.70

## CNc1cc(Nc2ccoc2C(=O)NC(C)C)nn2c(C(=O)NC3CC3)cnc12 [Example 54]
[1]
  IC50: 0.17 µM
[2]
  IC50: 0.05 µM
[3]
  pEC50: 8.22

## CNc1cc(Nc2scnc2C(=O)Nc2ccccc2)nn2c(C(=O)NC3CC3)cnc12 [Example 82]
[1]
  IC50: 0.19 µM
[2]
  IC50: 0.35 µM
[3]
  pEC50: 8.40

## CNc1cc(Nc2cn(C)nc2C(=O)Nc2cccnc2)nn2c(C(=O)NC3CC3)cnc12 [Example 5]
[1]
  IC50: 0.34 µM
[2]
  IC50: 0.07 µM
[3]
  pEC50: 8.00

## CNc1cc(Nc2ccsc2C(=O)Nc2cccnc2)nn2c(C(=O)NC3CC3)cnc12 [Example 46]
[1]
  IC50: 0.1 µM
[2]
  IC50: 0.12 µM
[3]
  pEC50: 8.10

## CNc1cc(Nc2csnc2C(=O)Nc2ccc(OC)cc2)nn2c(C(=O)NC3CC3)cnc12 [Example 63]
[2]
  IC50: 0.29 µM
[3]
  pEC50: 8.22

## CNc1cc(Nc2cn(C)nc2C(=O)Nc2ccccc2F)nn2c(C(=O)NC3CC3)cnc12 [Example 25]
[1]
  IC50: 0.13 µM
[2]
  IC50: 0.19 µM
[3]
  pEC50: 8.05

## CNc1cc(Nc2scnc2C(=O)Nc2cccnc2)nn2c(C(=O)NC3CC3)cnc12 [Example 83]
[1]
  IC50: 0.16 µM
[2]
  IC50: 1.76 µM
[3]
  pEC50: 8.00

## CNc1cc(Nc2csnc2C(=O)Nc2ccccc2)nn2c(C(=O)NC3CC3)cnc12 [Example 60]
[1]
  IC50: 0.211 µM
[2]
  IC50: 0.0662 µM
[3]
  pEC50: 8.57

## CNC(=O)c1ncsc1Nc1cc(NC)c2ncc(C(=O)NC3CC3)n2n1 [Example 77]
[1]; Kit225 T cells, 20 ng/mL human recombinant IL-23, 5-6 hours, luciferase, read-out: IL-23 Kit225 Reporter, LE (IC50)
  pIC50: 6.24
[2]; Kit225 T cells, 200 U/mL human recombinant IFNα, 5-6 hours, luciferase, read-out: IFNa Kit225 Reporter, LE (IC50)
  pIC50: 6.66
[3]; 2.5 nM Tyk2 (575-869), 40 nM [3H] probe, 30 minutes at room temperature, read-out: Probe Displacement EC50
  pEC50: 7.70

## CNc1cc(Nc2ccoc2C(=O)Nc2cccnc2)nn2c(C(=O)NC3CC3)cnc12 [Example 58]
[1]
  IC50: 0.15 µM
[2]
  IC50: 0.11 µM
[3]
  pEC50: 8.44

## CNc1cc(Nc2cn(C)nc2C(=O)Nc2cncnc2)nn2c(C(=O)NC3CC3)cnc12 [Example 8]
[1]
  IC50: 0.26 µM
[2]
  IC50: 0.22 µM
[3]
  pEC50: 8.12

## CNC(=O)c1cn(C)nc1Nc1cc(NC)c2ncc(C(=O)NC3CC3)n2n1 [Example 35, N-cyclopropyl-6-((1-methyl-4-(methylcarbamoyl)-1H-pyrazol-3-yl)amino)-8-(methylamino)imidazo[1,2-b]pyridazine-3-carboxamide]
[1]
  IC50: 1.09 µM
[2]
  IC50: 0.47 µM
[3]
  pEC50: 8.32

## [2H]C([2H])([2H])NC(=O)c1sccc1Nc1cc(NC)c2ncc(C(=O)NCCOC)n2n1 [Example 48]
[1]
  IC50: 0.15 µM
[2]
  IC50: 0.08 µM
[3]
  pEC50: 7.70

## CCn1cc(Nc2cc(NC)c3ncc(C(=O)NC4CC4)n3n2)c(C(=O)Nc2ccccc2)n1 [Example 31]
[1]
  IC50: 0.72 µM
[2]
  IC50: 0.3 µM
[3]
  pEC50: 8.03

## [2H]C([2H])([2H])NC(=O)c1occc1Nc1cc(NC)c2ncc(C(=O)NC3CC3)n2n1 [Example 53]
[1]
  IC50: 0.06 µM
[2]
  IC50: 0.07 µM
[3]
  pEC50: 8.55
